Key:
[1] = test system: E. multilocularis metacestode vesicles; experiment: Phosphoglucose isomerase (PGI) release assay (damage-marker release) on metacestode vesicles; format: cell-based, Echinococcus multilocularis; conditions: 10 μM; for PGI d5 (relative PGI release): 5 days; for PGI d12 (relative PGI release): 12 days
[2] = test system: E. multilocularis metacestode vesicles; experiment: Metacestode vesicle viability assay (ATP, CellTiter-Glo); format: cell-based, Echinococcus multilocularis
Protocol: Viability was assessed after 12 days using the same metacestode vesicles as for the PGI release assay. Triton X-100 was added to each well to a final concentration of 0.1 %. Subsequently the metacestode vesicles were broken mechanically and 50 μL of the supernatant was mixed with 50 μL of CellTiter-Glo® buffer (Promega, Dübendorf, Switzerland). Measurements were performed on a HIDEX Sense microplate reader.

[3] = overview screen, singlets, relative to 0.1 % Triton X-100, DMSO subtracted
[4] = overview screen, 10 μM, singlets, 12 days, relative to DMSO control
[5] = confirmation screen, triplicates, mean
[6] = confirmation screen, 10 μM, triplicates, mean, 12 days

| Compound | PGI d5 (relative PGI release) [1, 3] | PGI d12 (relative PGI release) [1, 3] | Viability d12 (relative viability) [2, 4] | PGI d5 (relative PGI release) [1, 5] | PGI d12 (relative PGI release) [1, 5] | Viability d12 (relative viability) [2, 6] | Viability d12 (relative viability) ([2]; 10 µM) |
| --- | --- | --- | --- | --- | --- | --- | --- |
| O=S(=O)(Nc1ccccc1)c1ccc(NC(=S)Nc2ccccc2)cc1 [MMV1578562] | -3.292% | -3.243% | 118.128% |  |  |  |  |
| Fc1ccc2c(/C=C/c3nnn[nH]3)c[nH]c2c1 [MMV1578563] | -0.5513% | -11.8723% | 20.2898% |  |  |  |  |
| CCc1cc(O)c(Oc2ccc(C(N)=O)cc2F)cc1F [MMV1578564] | 19.4124% | -2.538% | 125.644% |  |  |  |  |
| CSC[C@H]1CN(Cc2c[nH]c3c(N)ncnc23)C[C@@H]1O [MMV1578565] | -1.805% | -12.574% | 59.0324% |  |  |  |  |
| NC[C@H]1OB(O)c2c(OCCCO)cccc21 [MMV1578566] | 0.6057% | -3.009% | 7.765% |  |  |  |  |
| O=c1ccc2ncc(=O)n3c2n1CC3CN1CCC(NCc2cc3c(cn2)OCCC3)CC1 (stereo not drawn) [MMV1578568] | -2.295% | -8.489% | 53.1876% |  |  |  |  |
| O=C1NC(=S)N/C1=C\c1cc(Br)cc(Br)c1O [MMV1578569] | 1.516% | -5.575% | 64.4597% |  |  |  |  |
| CCC(C)NCC(O)Cn1c2ccc(Cl)cc2c2cc(Cl)ccc21 (stereo not drawn) [MMV1578570] | 90.467% | 70.4859% | 22.9025% | -0.08% | 0.27% | 94.06% |  |
| COc1cc(NC(=O)CN2C(=O)NC(c3ccccc3)(c3ccccc3)C2=O)cc(OC)c1 [MMV1578572] | -1.463% | -23.3736% | 61.4538% |  |  |  |  |
| COc1ccc(SCC(=O)N2c3ccccc3Sc3ccccc32)cc1 [MMV1578573] | -3.455% | -10.5042% | 50.7662% |  |  |  |  |
| CN(C)[C@@H]1C(=O)C(C(N)=O)=C(O)[C@@]2(O)C(=O)C3=C(O)c4c(O)c(NC(=O)CN5CCCC5)cc(F)c4C[C@H]3C[C@@H]12.Cl.Cl [MMV1578574] | -1.676% | -12.2407% | 18.1189% |  |  |  |  |
| CC(=O)O[C@H]1C[C@@]2(C)[C@@H](C[C@@H](O)[C@H]3[C@@]4(C)CC[C@@H](O)[C@@H](C)[C@@H]4CC[C@@]32C)/C1=C(\CCC=C(C)C)C(=O)O [MMV1578575] | 2.315% | -12.4921% |  |  |  |  | 144.199% |
| O=C(Cc1ccccc1F)Nc1nc2ccccc2[nH]1 [MMV1578576] | 4.048% | 84.4551% | 28.1158% | 0.17% | 0.0454% | 92.12% |  |
| O=C(NC12CC3CC(CC(C3)C1)C2)c1cc2ccccc2[nH]1 [MMV1578577] | -0.2186% | -2.179% | 82.8787% |  |  |  |  |
| O=C(Nc1nnc(-c2ccccc2)o1)c1ccc(F)cc1 [MMV1578578] | -0.5299% | 45.2443% | 33.8998% |  |  |  |  |
| COc1ccc(C)cc1NC(=O)c1ccc(S(=O)(=O)N2CCCCC2)cc1 [MMV1578579] | -1.553% | -13.2873% | 52.1022% |  |  |  |  |
| CCCCOC(=O)Nc1cc2nc(C3CCCCC3)[nH]c2cc1N(CC)CC [MMV1578842] | 1.645% | 57.0254% | 6.68% | -0.74% | 0.24% | 57.98% |  |
| O=c1cc(NCCCN[C@@H]2CCOc3c(Br)cc(Br)cc32)[nH]c2ccsc12 [MMV1578884] | 13.7393% | 54.0946% | 55.812% |  |  |  |  |
| O=c1nc(N2CCN(CC3CCCCC3)CC2)sc2c([N+](=O)[O-])cc(C(F)(F)F)cc12 [MMV1578885] | 15.7367% | 89.9274% | 20.6104% | -0.21% | 0.0323% | 97.20% |  |
| c1ccc(Cn2c(-c3ccccn3)nc3ccccc32)cc1 [MMV1578886] | -1.473% | 58.1597% | 16.9499% | -0.18% | -0.24% | 94.29% |  |

| Compound | PGI d5 (relative PGI release) [1, 3] | PGI d12 (relative PGI release) [1, 3] | Viability d12 (relative viability) [2, 4] | PGI d5 (relative PGI release) [1, 5] | PGI d12 (relative PGI release) [1, 5] | Viability d12 (relative viability) [2, 6] | Viability d12 (relative viability) ([2]; 10 µM) |
| --- | --- | --- | --- | --- | --- | --- | --- |
| Fc1ccc2c(/C=C/c3cccnc3)c[nH]c2c1 [MMV1578889] | -2.006% | 1.559% | 96.8566% |  |  |  |  |
| O=S(=O)(Nc1cccc2cccnc12)c1ccccc1 [MMV1578890] | 53.5139% | 49.7638% | 2.254% | 0.50% | -0.0456% | 68.64% |  |
| O=C(Cn1cnc2ccccc2c1=O)Nc1ccccc1 [MMV1578891] | -0.325% | -3.282% | 139.913% |  |  |  |  |
| CCOC(=O)N1CCN(c2ccc(Cl)cc2)CC1 [MMV1578898] | -0.03171% | 1.172% | 47.7603% |  |  |  |  |
| CCCC(=O)OCCc1ccccc1 [MMV1578899] | -0.4977% | -12.5447% | 64.2092% |  |  |  |  |
| C=C(C)n1c(=O)n(Cc2ccccc2C)c2ccccc21 [MMV1579354] | 29.5855% | 93.1874% | 10.0196% | -0.0635% | 0.33% | 130.19% |  |
| O=c1cc(OCc2ccccc2)ccn1Cc1ccccc1 [MMV1579775] | -1.928% | -10.779% | 63.3743% |  |  |  |  |
| NS(=O)(=O)c1ccc(NC(=O)NC(c2ccccc2)c2ccccc2)cc1 [MMV1579776] | -0.6102% | 61.5508% | 8.5167% | -0.15% | -0.30% | 80.00% |  |
| O=[N+]([O-])c1cn(Cc2nc(O)nc(O)c2Br)cn1 [MMV1579777] | -0.845% | -7.383% | 93.1599% |  |  |  |  |
| C[C@H](NC(CC(=O)c1ccccc1C(F)(F)F)C(=O)O)c1ccccc1 (stereo partly drawn) [MMV1579778] | -3.315% | -4.896% | 114.059% |  |  |  |  |
| CC(=O)Nc1cc(NS(=O)(=O)c2ccc(Cl)cc2)cc2c(Cl)n[nH]c12 [MMV1579779] | 1.247% | 30.3469% | 88.2086% |  |  |  |  |
| CC(C)n1cnc2c(NCc3ccccc3)nc(NCc3ccccc3)nc21 [MMV1579780] | 13.6684% | 58.0803% | 34.6202% |  |  |  |  |
| CC(Cc1ccccc1)C(=O)Nc1ccc(Cl)cc1C(=O)O (stereo not drawn) [MMV1579781] | -1.72% | 1.6268% | 82.6324% |  |  |  |  |
| Cc1cccc(CC(=O)N[C@H]2CCOC2=O)c1 [MMV1579782] | 1.649% | 1.447% | 167.646% |  |  |  |  |
| CCCCSc1nc(N)c2[nH]c(=O)c(=O)n(Cc3ccccc3)c2n1 [MMV1579783] | 3.365% | -15.2556% | 63.4578% |  |  |  |  |
| O=C(Nc1ccccc1C(=O)O)c1cccc(Oc2ccccc2)c1 [MMV1579784] | 0.07516% | 11.2094% | 41.5815% |  |  |  |  |
| N#CCN1C(=O)COc2cc(F)c(N3C(=O)c4ccccc4C3=O)cc21 [MMV1579785] | -1.9012% | -13.7258% | 95.5206% |  |  |  |  |
| Cl.Cl.NCCCc1ccccc1C(=O)Nc1ncc([N+](=O)O)s1 [MMV1579786] | -0.3411% | -16.376% | 116.729% |  |  |  |  |
| O=C(CP(=O)(O)O)NCCc1cccc(Oc2ccccc2)c1 [MMV1579787] | -1.804% | -11.6628% | 61.3703% |  |  |  |  |
| Cc1c(CN(C)C(=O)/C=C/c2cnc3c(c2)C(C)(C)C(=O)N3)oc2ccccc12 [MMV1579788] | 17.9293% | 63.9713% | 5.845% | -0.0109% | -0.0852% | 76.12% |  |
